Data as given in patent US20250109127A1, “METHODS OF USE OF PHENOXYPROPYLAMINE COMPOUNDS TO TREAT DEPRESSION” (Minerva Neurosciences, Inc., priority 2013, published 2025).
“And” between values parts separate entries of the source, which are not always exact repeats. Equal values may be shown once.

System: 5-HIAA release in the rat prefrontal cortex
Assay: Microdialysis: 5-HIAA release in prefrontal cortex after I.P. administration
Type: in vivo
Details: for 5-HIAA in dialysate, MEAN / 5-HIAA in dialysate, individual animals: Citalopram 10 mg/kg I.P.
Procedure: The aim of the study was to evaluate, using microdialysis, the effects of an intraperitoneal (I.P.) administration in rats of three different doses of SON-117 on dopamine and its metabolites, serotonin and its metabolite (5-HIAA), and norepinephrine levels in prefrontal cortex.
Thirty-two adult male Wistar rats were used for the whole study (4 groups of eight animals planned for the study, Table 1).
Surgery was performed on rats weighing about 300 g at the beginning of the experiments. Rats were anaesthetized with Ketamine (50 mg/kg) & Xylazine (15 mg/kg) by intramuscular administration. The animals were placed in a stereotaxic apparatus in the flat-skull position at a constant setting of −3.3 mm between ear bars and the incisor bar. The animals were treated with a local anesthesic (xylocaine 1%, Astra Zeneca) and an analgesic (Temgesic, from Schering Plough, 0.05 mg/kg, s.c.). A rostrocaudal midline incision was made with a lancet to expose the dorsal skull surface. The “stereotaxic zero” was defined by the Bregma in accordance with Paxinos and Watson's atlas (1986). A hole was drilled in the skull with a drill and the meninges were pierced with a sterile needle to implant a CMA12 guide cannula which later received the dialysis probe.
Coordinates used for implanting guide cannula in prefrontal cortex from Bregma were anteroposterior 3.7 mm, mediolateral 0.8 mm, and dorsoventral −2 mm (top of the probe was at −5 mm). The guide cannula was fixed to the skull with two stainless steel screws (1.88 mm outside diameter) anchored. An application of dental cement was added. A plastic collar allowed each animal to be tethered to a Swivel assembly of the CMA 120 awake animal system. Following surgery, rats were kept in individual cages and allowed to recover for a minimum of 3-5 days before the experimentation. The rats were handled and put in plastic bowl for 10 min at least every day to habituate the animals to their new environment for the dialysis. An I.P. administration with saline was also performed every day.
Dialysis probes (CMA12/3 mm, membrane, 20 kD cut-off, Carnegie Medicine, Stockholm, Sweden), were carefully washed before inserting into the guide cannula. The wash was performed with the artificial cerebrospinal fluid (aCSF) medium (NaCl 147 mM, KCl 2.7 mM, CaCl2 1.2 mM, MgCl2 0.85 mM) at room temperature. The dialysis system was then equilibrated at 20° C. at a perfusion rate of 1 μl/min with a Carnegie pump (CMA100). All catheters (FEP tubing, internal volume of 1.2 μl/10 cm, and tubing adaptors) used for microdialysis were treated in the same conditions.
The probes duly prepared were inserted into the guide cannula and the CMA120 Swivel assembly secured to the animal using a plastic collar. Flow through the dialysis probe with aCSF was maintained at a rate of 1 μl/min during the whole experimentation. The first four fractions (corresponding to 2 hours) were discarded to avoid the effects of parenchymal disturbance and to ensure that an approximate steady-state level was reached. Fractions were then collected over a period of 8.5 h during which time the animals remained quiet. The dialysates were automatically collected with an autosampler (microfraction collector CMA 140, Carnegie Medicin) and stored at −80° C. until analysis. […] Perfusion was then maintained for 7 hours with aCSF. The dialysates (30 μl) were collected into 300 μl vials, transferred into dry ice and then kept frozen (−80° C.) until analysis. Frozen samples were shipped to a partner for analysis. At the end of the microdialysis study, a PBS with colored ink was perfused through the probe in order to visualize the dialyzed area.
Catecholamine assay: Concentrations of dopamine, DOPAC, HVA, 5-HIAA, 5-HT, and norepinephrin were determined for each sample by HPLC coupled with electrochemical detection.

In the case of CN(C)CCCC1(c2ccc(F)cc2)OCc2cc(C#N)ccc21 (stereo not drawn) [Citalopram, citalopram, reference compound], the “5-HIAA in dialysate, MEAN” value (T30-T1 h) is reported as 112.98 % of respective basal, the “5-HIAA in dialysate, individual animals” value (T30-T1 h) is reported as 108.67 % of respective basal and 107.01 % of respective basal and 121.99 % of respective basal and 141.67 % of respective basal and 110.50 % of respective basal and 102.40 % of respective basal and 95.39 % of respective basal and 116.20 % of respective basal and the “5-HIAA in dialysate, MEAN” value (T1 h 30-T2 h) is reported as 89.03 % of respective basal. For the same compound, the “5-HIAA in dialysate, individual animals” value (T1 h 30-T2 h) was 79.21 % of respective basal and 80.54 % of respective basal and 115.42 % of respective basal and 91.93 % of respective basal and 89.59 % of respective basal and 74.91 % of respective basal and 97.01 % of respective basal and 83.65 % of respective basal, the “5-HIAA in dialysate, MEAN” value (T1 h-T1 h 30) was 101.94 % of respective basal and the “5-HIAA in dialysate, individual animals” value (T1 h-T1 h 30) was 100.18 % of respective basal and 85.46 % of respective basal and 131.13 % of respective basal and 121.97 % of respective basal and 98.30 % of respective basal and 88.97 % of respective basal and 88.75 % of respective basal and 100.76 % of respective basal. The “5-HIAA in dialysate, MEAN” value (T2 h 30-T3 h) was 72.04 % of respective basal, the “5-HIAA in dialysate, individual animals” value (T2 h 30-T3 h) was 51.39 % of respective basal and 53.65 % of respective basal and 94.55 % of respective basal and 76.96 % of respective basal and 86.07 % of respective basal and 61.11 % of respective basal and 78.96 % of respective basal and 73.66 % of respective basal and the “5-HIAA in dialysate, MEAN” value (T2 h-T2 h 30) was 82.39 % of respective basal. For the same compound, the “5-HIAA in dialysate, individual animals” value (T2 h-T2 h 30) was 86.10 % of respective basal and 66.06 % of respective basal and 115.98 % of respective basal and 81.96 % of respective basal and 87.60 % of respective basal and 62.15 % of respective basal and 79.47 % of respective basal and 79.79 % of respective basal, the “5-HIAA in dialysate, MEAN” value (T3 h 30-T4 h) was 74.61 % of respective basal and the “5-HIAA in dialysate, individual animals” value (T3 h 30-T4 h) was 73.28 % of respective basal and 61.52 % of respective basal and 99.49 % of respective basal and 73.39 % of respective basal and 75.64 % of respective basal and 59.18 % of respective basal and 77.94 % of respective basal and 76.45 % of respective basal. For the same compound, the “5-HIAA in dialysate, MEAN” value (T3 h-T3 h 30) was 73.07 % of respective basal, the “5-HIAA in dialysate, individual animals” value (T3 h-T3 h 30) was 74.34 % of respective basal and 48.79 % of respective basal and 107.40 % of respective basal and 68.89 % of respective basal and 77.21 % of respective basal and 56.57 % of respective basal and 77.95 % of respective basal and 73.43 % of respective basal and the “5-HIAA in dialysate, MEAN” value (T4 h 30-T5 h) was 71.07 % of respective basal. The “5-HIAA in dialysate, individual animals” value (T4 h 30-T5 h) was 75.13 % of respective basal and 59.79 % of respective basal and 90.52 % of respective basal and 59.71 % of respective basal and 66.71 % of respective basal and 59.77 % of respective basal and 77.37 % of respective basal and 79.55 % of respective basal, the “5-HIAA in dialysate, MEAN” value (T4 h-T4 h 30) was 73.18 % of respective basal and the “5-HIAA in dialysate, individual animals” value (T4 h-T4 h 30) was 72.77 % of respective basal and 52.24 % of respective basal and 97.15 % of respective basal and 67.66 % of respective basal and 75.69 % of respective basal and 64.72 % of respective basal and 80.07 % of respective basal and 75.12 % of respective basal. For the same compound, the “5-HIAA in dialysate, MEAN” value (T5 h 30-T6 h) was 68.38 % of respective basal, the “5-HIAA in dialysate, individual animals” value (T5 h 30-T6 h) was 55.76 % of respective basal and 56.52 % of respective basal and 86.58 % of respective basal and 66.99 % of respective basal and 65.74 % of respective basal and 68.20 % of respective basal and 71.48 % of respective basal and 75.45 % of respective basal and the “5-HIAA in dialysate, MEAN” value (T5 h-T5 h 30) was 69.50 % of respective basal. For the same compound, the “5-HIAA in dialysate, individual animals” value (T5 h-T5 h 30) was 50.96 % of respective basal and 91.09 % of respective basal and 61.61 % of respective basal and 64.79 % of respective basal and 60.00 % of respective basal and 84.10 % of respective basal and 73.94 % of respective basal, the “5-HIAA in dialysate, MEAN” value (T6 h 30-T7 h) was 67.44 % of respective basal and the “5-HIAA in dialysate, individual animals” value (T6 h 30-T7 h) was 61.13 % of respective basal and 52.63 % of respective basal and 87.81 % of respective basal and 64.43 % of respective basal and 57.20 % of respective basal. For the same compound, the “5-HIAA in dialysate, MEAN” value (T6 h-T6 h 30) was 63.81 % of respective basal, the “5-HIAA in dialysate, individual animals” value (T6 h-T6 h 30) was 60.01 % of respective basal and 53.66 % of respective basal and 90.97 % of respective basal and 62.02 % of respective basal and 55.94 % of respective basal and 67.93 % of respective basal and 47.86 % of respective basal and 72.09 % of respective basal and the “5-HIAA in dialysate, MEAN” value (T-30 min-T0 (pre-dose)) was 102.91 % of respective basal. The “5-HIAA in dialysate, MEAN” value (T-1 h 30-T-1 h (pre-dose)) was 97.47 % of respective basal, the “5-HIAA in dialysate, MEAN” value (T-1 h-T-30 min (pre-dose)) was 98.99 % of respective basal and the “5-HIAA concentration in prefrontal cortex, significant slight increase” value (citalopram 10 mg/kg IP, at 0.5 h and 1 h) was 113%.
